Results reported in the NIST ThermoML archive (doi:10.1016/j.fluid.2014.10.003).
Values joined by “and” are separate entries in the source; they are usually repeats but may differ in a detail not shown here. Equal values may be shown once.

Conditions: Liquid, Vibrating tube method

CCCCC(CC)COC(=O)c1ccc(C(=O)OCC(CC)CCCC)c(C(=O)OCC(CC)CCCC)c1 (configuration not stated) [tris(2-ethylhexyl) trimellitate]
Conditions | mass density
293.15 K, 100 kPa | 988.2 kg/m3
293.15 K, 2510 kPa | 989.6 kg/m3
293.15 K, 5000 kPa | 991 kg/m3
293.15 K, 7510 kPa | 992.4 kg/m3
293.15 K, 10010 kPa | 993.8 kg/m3
293.15 K, 15010 kPa | 996.6 kg/m3
293.15 K, 19990 kPa | 999.2 kg/m3
293.15 K, 30010 kPa | 1004.3 kg/m3
293.15 K, 40020 kPa | 1009.2 kg/m3
293.15 K, 50030 kPa | 1013.8 kg/m3
293.15 K, 68010 kPa | 1021.5 kg/m3
313.15 K, 100 kPa | 973.4 kg/m3
313.15 K, 2500 kPa | 974.9 kg/m3
313.15 K, 2510 kPa | 974.9 kg/m3
313.15 K, 5020 kPa | 976.4 kg/m3 and 976.5 kg/m3
313.15 K, 7490 kPa | 977.9 kg/m3
313.15 K, 10010 kPa | 979.4 kg/m3 and 979.5 kg/m3
313.15 K, 15010 kPa | 982.4 kg/m3
313.15 K, 20000 kPa | 985.3 kg/m3
313.15 K, 30030 kPa | 990.8 kg/m3
313.15 K, 40000 kPa | 996 kg/m3
313.15 K, 40020 kPa | 996 kg/m3
313.15 K, 50000 kPa | 1001 kg/m3
313.15 K, 68000 kPa | 1009.3 kg/m3
333.15 K, 100 kPa | 958.9 kg/m3
333.15 K, 2500 kPa | 960.4 kg/m3 and 960.5 kg/m3
333.15 K, 5000 kPa | 962.1 kg/m3
333.15 K, 7510 kPa | 963.8 kg/m3
333.15 K, 10010 kPa | 965.4 kg/m3
333.15 K, 15010 kPa | 968.6 kg/m3
333.15 K, 20000 kPa | 971.6 kg/m3
333.15 K, 30010 kPa | 977.6 kg/m3
333.15 K, 39990 kPa | 983.1 kg/m3
333.15 K, 50000 kPa | 988.4 kg/m3
333.15 K, 67990 kPa | 997.2 kg/m3
353.15 K, 100 kPa | 944.5 kg/m3
353.15 K, 2490 kPa | 946.2 kg/m3
353.15 K, 5020 kPa | 948.1 kg/m3
353.15 K, 7510 kPa | 949.8 kg/m3
353.15 K, 10020 kPa | 951.6 kg/m3
353.15 K, 14990 kPa | 955 kg/m3
353.15 K, 20010 kPa | 958.3 kg/m3
353.15 K, 30000 kPa | 964.7 kg/m3
353.15 K, 40020 kPa | 970.6 kg/m3
353.15 K, 49990 kPa | 976.2 kg/m3
353.15 K, 68000 kPa | 985.5 kg/m3
373.15 K, 100 kPa | 930.1 kg/m3
373.15 K, 2510 kPa | 932 kg/m3
373.15 K, 5020 kPa | 934 kg/m3
373.15 K, 7500 kPa | 935.9 kg/m3
373.15 K, 10040 kPa | 937.9 kg/m3
373.15 K, 15000 kPa | 941.6 kg/m3
373.15 K, 20030 kPa | 945.2 kg/m3
373.15 K, 30010 kPa | 952 kg/m3
373.15 K, 40020 kPa | 958.3 kg/m3
373.15 K, 49990 kPa | 964.3 kg/m3
373.15 K, 68010 kPa | 974.2 kg/m3
